≈ marks a conversion by molar mass, not a printed value. Where “and” joins values, the source holds several entries; their conditions need not be identical. Equal values may be shown once. Read-outs that look alike come from different tables or passages of the source.
Columns and labels:
[1] = test system: P. falciparum chloroquine sensitive strain PoW; design: method as in PMID 12601673; details: cited from earlier work
[2] = test system: P. falciparum chloroquine-resistant strain Dd2; design: method as in PMID 12601673; details: cited from earlier work
[3] = test system: Trypanosoma brucei rhodesiense (bloodstream trypomastigotes, STIB 900 strain); test: In vitro activity against T. b. rhodesiense bloodstream trypomastigotes (STIB 900); assay type: cell-based; details: for SI (selectivity index): ratio of cytotoxic (L6) over antiprotozoal (Tbr) IC50 values
[4] = Cytotoxicity test against mammalian cells (L6); details: rat
[5] = test system: P. falciparum (multidrug resistance strain K1); design: method as in PMID 24242110; details: cited from earlier work
[6] = test system: Plasmodium falciparum (intra erythrocytic forms, NF54 IEF strain); test: In vitro activity against P. falciparum intra-erythrocytic forms (NF54); assay type: cell-based; details: NF54, read-out: IC50 Pf (crude extracts)
[7] = test system: Leishmania donovani (amastigotes, MHOM-ET-67/L82 strain); test: In vitro activity against L. donovani amastigotes (MHOM-ET-67/L82); assay type: cell-based; details: Table 1, MHOM-ET-67/L82 amastigotes, values marked a: only one replicate, others mean of two ± SD, read-out: IC50 Ldon (crude extracts)
[8] = Table 3, STIB 900 trypomastigotes, pure compounds, read-out: IC50 Tbr (elemanolides), value in brackets (converted)
[9] = Trypanosoma brucei, Table 3, STIB 900 trypomastigotes, pure compounds, read-out: IC50 Tbr (elemanolides), value in brackets (converted)
[10] = Trypanosoma brucei, Table 3, STIB 900 trypomastigotes, read-out: IC50 Tbr (elemanolides)

Compound: 11,13-Dihydrovernodalin [Compound 6]
- IC50 P. falciparum PoW [1]: 2.3 µg/mL
- IC50 P. falciparum Dd2 [2]: 1.1 µg/mL

Compound: C=CC12COC(=O)C(=C)C1C(O)C(C(=C)C(=O)OC)C(O)C2 (stereo not drawn) [Compound 1, 8-Desacylvernodalol]
- IC50 [3, 8]: 2530 nM
- IC50 [3, 9]: 2500 nM
- IC50 [3, 10]: 0.779 ± 0.22 µg/mL
- SI (selectivity index) [3]: 13.7
- IC50 ([4]; L6 rat skeletal myoblast cells): 10.7 µg/mL and 34.6 µM

Compound: C=C[C@@]12COC(=O)C(=C)[C@@H]1[C@H]1OC(=O)C(=C)[C@@H]1[C@@H](O)C2 [Compound 2, Vernolepin]
- IC50 Tbr (elemanolides) ([3]; Table 3, STIB 900 trypomastigotes): 0.051 ± 0.035 µg/mL (≈ 0.185 µM)
- IC50 [3, 8]: 185 nM
- IC50 [3, 9]: 190 nM
- IC50 [3, 10]: 0.05 µg/mL
- SI (selectivity index) [3]: 14.5
- times more active than the crude extract (Tbr) ([3]; versus DCM crude extract): approximately 3.5
- IC50 [4]: 0.735 µg/mL and 2.68 µM

Compound: C=C[C@@]12COC(=O)C(=C)[C@@H]1[C@@H](O)[C@@H]1C(=C)C(=O)O[C@H]1C2 [Compound 3, Vernomenin]
- IC50 [3, 9]: 508 nM
- IC50 [3, 10]: 0.14 ± 0.1 µg/mL
- SI (selectivity index) [3]: 4.50
- IC50 [4]: 0.62 µg/mL and 2.26 µM

Compound: C=C[C@@]12COC(=O)C(=C)[C@@H]1[C@@H](O)[C@H](C(=C)C(=O)OC)[C@@H](OC(=O)C(=C)CO)C2 [Compound 4, Vernodalol]
- IC50 [3, 8]: 255 nM
- IC50 [3, 9]: 260 nM
- IC50 [3, 10]: 0.1 ± 0.041 µg/mL
- factor by which more active than compound 1 (Tbr) ([3]; compound 4 versus compound 1): ~10
- SI (selectivity index) [3]: 14.4
- IC50 anti-plasmodial activity, P. falciparum K1 [5]: 4.2 µg/mL (≈ 10.7 µM)
- IC50 ([4]; L6 rat skeletal myoblast cells): 1.44 µg/mL and 3.67 µM

Compound: C=C[C@@]12COC(=O)C(=C)[C@@H]1[C@H]1OC(=O)C(=C)[C@@H]1[C@@H](OC(=O)C(=C)CO)C2 [Compound 5, Vernodalin]
- IC50 anti-plasmodial activity, P. falciparum K1 [5]: 4.0 µg/mL (≈ 11.1 µM)

Compound: CCN(CC)CCCC(C)Nc1ccnc2cc(Cl)ccc12 (stereo not drawn) [chloroquine]
- IC50 [6]: 0.002 µg/mL (≈ 0.00625 µM)

Compound: Nc1nc(N)nc(Nc2ccc([As]3SCC(CO)S3)cc2)n1 (stereo not drawn) [melarsoprol, reference compound]
- IC50 ([3]; Trypanosoma brucei, read-out: IC50 Tbr (crude extracts)): 0.003 ± 0.001 µg/mL

Compound: CCCCCCCCCCCCCCCCOP(=O)([O-])OCC[N+](C)(C)C [miltefosine]
- IC50 [7]: 0.091 ± 0.07 µg/mL (≈ 0.223 µM)

Compound: COc1cc([C@@H]2c3cc4c(cc3[C@H](O)[C@H]3COC(=O)[C@H]23)OCO4)cc(OC)c1OC [podophyllotoxin, reference compound]
- IC50 [4]: 0.007 ± 0.001 µg/mL (≈ 0.0169 µM)
